# From US20120270864A1, “2-QUINOLINONE AND 2-QUINOXALINONE-DERIVATIVES AND THEIR USE AS ANTIBACTERIAL AGENTS” (ASTRAZENECA AB, priority 2006, published 2012)
# System: Staphylococcus aureus (Sau) 516 cells
# Assay: Bacterial Susceptibility Testing Methods 2 (microbroth dilution, growth inhibition)
# Type: cell-based
# Description: Compounds may be tested for antimicrobial activity by susceptibility testing using microbroth dilution methods recommended by CSLI. Compounds may be dissolved in dimethylsulfoxide and tested in 10 doubling dilutions in the susceptibility assays such that the final dimethylsulfoxide concentration in the assay is 2% (v/v). The Staphylococcus aureus (Sau) 516 cells used in the assay may be grown overnight on appropriate agar media and then suspended in the NCCLS-recommended liquid susceptibility-testing media. […] Plates may be incubated under appropriate conditions of atmosphere and temperature and for times according to NCCLS standard methods prior to being read. As used in Table 1 below, the term “inhibition” refers to the percentage of Staphylococcus aureus 516 cell growth that is suppressed (compared to an untreated sample) by the compound of the indicated example number. When tested in the above in-vitro assay, the compounds and salts of the example numbers listed below were tested at the indicated concentrations, providing the indicated inhibitions. In most instances, the highest concentrations at which the compounds were tested was 8 μg/mL. In some instances, however, compounds were tested at concentrations higher than 8 μg/mL, typically when the concentration was first measured in μM and was subsequently converted to μg/mL. In those cases in which compounds were tested at more than one concentration higher than 8 μg/mL, the concentration closest to 8 μg/mL is provided below.
# [1] = Staphylococcus aureus, Tested Concentration 8 μg/mL, Staphylococcus aureus 516 cell growth suppressed compared to untreated sample
# [2] = Tested Concentration 8 μg/mL, Staphylococcus aureus 516 cell growth suppressed compared to untreated sample
Structure (SMILES),inhibition at 8 µg/mL [1],other results
"COc1ccc2ncc(=O)n(CCN3CC[C@@H](NCc4ccc5c(n4)NC(=O)CO5)[C@@H](O)C3)c2c1 [Example 11, 6-[({(3S,4R)-3-Hydroxy-1-[2-(7-methoxy-2-oxoquinoxalin-1(2H)-yl)ethyl]piperidin-4-yl}amino)methyl]-2H-pyrido[3,2-b][1,4]oxazin-3(4H)-one]",100%,–
"N#Cc1ccc2ccc(=O)n(CCN3CC[C@@H](NCc4cc5c(cn4)OCCO5)[C@@H](F)C3)c2c1 [Example 12, 1-(2-{(3S,4R)-4-[(2,3-Dihydro[1,4]dioxino[2,3-c]pyridin-7-ylmethyl)amino]-3-fluoropiperidin-1-yl}ethyl)-2-oxo-1,2-dihydroquinoline-7-carbonitrile]",100%,–
"N#Cc1ccc2ccc(=O)n(CCN3CC[C@H](NCc4cc5c(cn4)OCCO5)[C@H](F)C3)c2c1 [Example 13, 1-(2-{(3R,4S)-4-[(2,3-Dihydro[1,4]dioxino[2,3-c]pyridin-7-ylmethyl)amino]-3-fluoropiperidin-1-yl}ethyl)-2-oxo-1,2-dihydro quino line-7-carbonitrile]",100%,–
"COc1ccc2ncc(=O)n(CCN3CC[C@@H](NCc4cc5c(cn4)OCCO5)[C@@H](OC)C3)c2c1 [Example 14, 1-(2-{(3S,4R)-4-[(2,3-Dihydro[1,4]dioxino[2,3-c]pyridin-7-ylmethyl)amino]-3-methoxypiperidin-1-yl}ethyl)-7-methoxyquinoxalin-2(1H)-one]",100%,–
"COc1ccc2ncc(=O)n(CCN3CC[C@@H](NCc4ccc5c(n4)NC(=O)CO5)[C@@H](OC)C3)c2c1 [Example 15, 6-[({(3S,4R)-3-Methoxy-1-[2-(7-methoxy-2-oxoquinoxalin-1(2H)-yl)ethyl]piperidin-4-yl}amino)methyl]-2H-pyrido[3,2-b][1,4]oxazin-3 (4H)-one]",97%,–
"COc1ccc2ncc(=O)n(CCN3CC[C@H](NCc4cc5c(cn4)OCCO5)[C@H](OC)C3)c2c1 [Example 16, 1-(2-{(3R,4S)-4-[(2,3-Dihydro[1,4]dioxino[2,3-c]pyridin-7-ylmethyl)amino]-3-methoxypiperidin-1-yl}ethyl)-7-methoxyquinoxalin-2(1H)-one]",97%,–
"COc1ccc2ncc(=O)n(CCN3CC[C@H](NCc4ccc5c(n4)NC(=O)CO5)[C@H](OC)C3)c2c1 [Example 17, 6-[({(3R,4S)-3-Methoxy-1-[2-(7-methoxy-2-oxoquinoxalin-1(2H)-yl)ethyl]piperidin-4-yl}amino)methyl]-2H-pyrido[3,2-b][1,4]oxazin-3(4H)-one]",99%,–
COc1ccc2ncc(=O)n(CCN3CC[C@H](NCc4ccc5c(n4)NC(=O)CS5)[C@H](OC)C3)c2c1 [Example 18],–,Inhibition (%) [2]: 95%
"CO[C@H]1CN(CCn2c(=O)ccc3ccc(C#N)cc32)CC[C@H]1NCc1cc2c(cn1)OCCO2 [Example 19, 1-(2-{(3S,4R)-4-[(2,3-Dihydro[1,4]dioxino[2,3-c]pyridin-7-ylmethyl)amino]-3-methoxypiperidin-1-yl}ethyl)-2-oxo-1,2-dihydro quinoline-7-carbonitrile]",100%,–
"CO[C@H]1CN(CCn2c(=O)ccc3ccc(C#N)cc32)CC[C@H]1NCc1ccc2c(n1)NC(=O)CO2 [Example 20, 1-[2-((3S,4R)-3-M ethoxy-4-{[(3-oxo-3,4-dihydro-2H-pyrido[3,2-b][1,4]oxazin-6-yl)methyl]amino}piperidin-1-yl)ethyl]-2-oxo-1,2-dihydro quino line-7-carbonitrile]",100%,–
"CO[C@H]1CN(CCn2c(=O)ccc3ccc(C#N)cc32)CC[C@H]1NCc1ccc2c(n1)NC(=O)CS2 [Example 21, 1-[2-((3S,4R)-3-M ethoxy-4-{[(3-oxo-3,4-dihydro-2H-pyrido[3,2-b][1,4]thiazin-6-yl)methyl]amino}piperidin-1-yl)ethyl]-2-oxo-1,2-dihydro quino line-7-carbonitrile]",100%,–
"CO[C@@H]1CN(CCn2c(=O)ccc3ccc(C#N)cc32)CC[C@@H]1NCc1cc2c(cn1)OCCO2 [Example 22, 1-(2-{(3R,4S)-4-[(2,3-Dihydro[1,4]dioxino[2,3-c]pyridin-7-ylmethyl)amino]-3-methoxypiperidin-1-yl}ethyl)-2-oxo-1,2-dihydroquinoline-7-carbonitrile]",100%,–
"CO[C@@H]1CN(CCn2c(=O)ccc3ccc(C#N)cc32)CC[C@@H]1NCc1ccc2c(n1)NC(=O)CO2 [Example 23, 1-[2-((3R,4S)-3-M ethoxy-4-{[(3-oxo-3,4-dihydro-2H-pyrido[3,2-b][1,4]oxazin-6-yl)methyl]amino}piperidin-1-yl)ethyl]-2-oxo-1,2-dihydro quino line-7-carbonitrile]",100%,–
"CO[C@@H]1CN(CCn2c(=O)ccc3ccc(C#N)cc32)CC[C@@H]1NCc1ccc2c(n1)NC(=O)CS2 [Example 24, 1-[2-((3R,4S)-3-Methoxy-4-{[(3-oxo-3,4-dihydro-2H-pyrido[3,2-b][1,4]thiazin-6-yl)methyl]amino}piperidin-1-yl)ethyl]-2-oxo-1,2-dihydro quino line-7-carbonitrile]",100%,–
"COc1ccc2ncc(=O)n(CCN3CC[C@H](NCc4cc5c(cn4)OCCO5)[C@@H](OC)C3)c2c1 [Example 25, 1-(2-{(3S,4S)-4-[(2,3-Dihydro[1,4]dioxino[2,3-c]pyridin-7-ylmethyl)amino]-3-methoxypiperidin-1-yl}ethyl)-7-methoxyquinoxalin-2(1H)-one]",98%,–
"COc1ccc2ncc(=O)n(CCN3CC[C@H](NCc4ccc5c(n4)NC(=O)CO5)[C@@H](OC)C3)c2c1 [Example 26, 6-[({(3S,4S)-3-Methoxy-1-[2-(7-methoxy-2-oxoquinoxalin-1(2H)-yl)ethyl]piperidin-4-yl}amino)methyl]-2H-pyrido[3,2-b][1,4]oxazin-3(4H)-one]",98%,–
"COc1ccc2ncc(=O)n(CCN3CC[C@@H](NCc4cc5c(cn4)OCCO5)[C@H](OC)C3)c2c1 [Example 27, 1-(2-{(3R,4R)-4-[(2,3-Dihydro[1,4]dioxino[2,3-c]pyridin-7-ylmethyl)amino]-3-methoxypiperidin-1-yl}ethyl)-7-methoxyquinoxalin-2(1H)-one]",87%,–
"COc1ccc2ncc(=O)n(CCN3CC[C@@H](NCc4ccc5c(n4)NC(=O)CO5)[C@H](OC)C3)c2c1 [Example 28, 6-[({(3R,4R)-3-Methoxy-1-[2-(7-methoxy-2-oxoquinoxalin-1(2H)-yl)ethyl]piperidin-4-yl}amino)methyl]-2H-pyrido[3,2-b][1,4]oxazin-3(4H)-one]",98%,–
N#Cc1ccc2ccc(=O)n(CCN3CCC(NCc4ccc5c(n4)NC(=O)CO5)C(F)C3)c2c1 (centres unmarked) [Example 34],–,"Inhibition (%) (Tested Concentration 12 μg/mL, Staphylococcus aureus 516 cell growth): 91%"
"CO[C@@H]1CN(CCn2c(=O)ccc3ccc(C#N)cc32)CC[C@H]1NCc1cc2c(cn1)OCCO2 [Example 41, 1-(2-{(3R,4R)-4-[(2,3-dihydro[1-yl]dioxino[2,3-c]pyridin-7-ylmethyl)amino]-3-methoxypiperidin-1-yl}ethyl)-2-oxo-1,2-dihydro quinoline-7-carbonitrile]",–,Inhibition (%) [2]: 100%
"CO[C@@H]1CN(CCn2c(=O)ccc3ccc(C#N)cc32)CC[C@H]1NCc1ccc2c(n1)NC(=O)CO2 [Example 42, 1-[2-((3R,4R)-3-methoxy-4-{[(3-oxo-3,4-dihydro-2H-pyrido[3,2-b][1,4]oxazin-6-yl)methyl]amino}piperidin-1-yl)ethyl]-2-oxo-1,2-dihydroquinoline-7-carbonitrile]",100%,–
"CO[C@H]1CN(CCn2c(=O)ccc3ccc(C#N)cc32)CC[C@@H]1NCc1cc2c(cn1)OCCO2 [Example 43, 1-(2-{(3S,4S)-4-[(2,3-Dihydro[1,4]dioxino[2,3-c]pyridin-7-ylmethyl)amino]-3-methoxypiperidin-1-yl}ethyl)-2-oxo-1,2-dihydroquinoline-7-carbonitrile]",12%,"inhibition at 4 µg/mL (Staphylococcus aureus, Tested Concentration 4 μg/mL, Staphylococcus aureus 516 cell growth): 100%"
"CO[C@H]1CN(CCn2c(=O)ccc3ccc(C#N)cc32)CC[C@@H]1NCc1ccc2c(n1)NC(=O)CO2 [Example 44, 1-[2-((3S,4S)-3-Methoxy-4-{[(3-oxo-3,4-dihydro-2H-pyrido[3,2-b][1,4]oxazin-6-yl)methyl]amino}piperidin-1-yl)ethyl]-2-oxo-1,2-dihydroquinoline-7-carbonitrile]",100%,–
"COc1ccc2ncc(=O)n(CCN3CC[C@@H](NCc4ccc5c(n4)NC(=O)CO5)[C@@H](F)C3)c2c1 [Example 45, 6-[({(3S,4R)-3-Fluoro-1-[2-(7-methoxy-2-oxoquinoxalin-1(2H)-yl)ethyl]piperidin-4-yl}amino)methyl]-2H-pyrido[3,2-b][1,4]oxazin-3(4H)-one]",97%,–
"COc1ccc2ncc(=O)n(CCN3CC[C@H](NCc4ccc5c(n4)NC(=O)CO5)[C@H](F)C3)c2c1 [Example 46, 6-[({(3R,4S)-3-Fluoro-1-[2-(7-methoxy-2-oxoquinoxalin-1(2H)-yl)ethyl]piperidin-4-yl}amino)methyl]-2H-pyrido[3,2-b][1,4]oxazin-3 (4H)-one]",100%,–
